Results as given in patent US7662404B2, “Transdermal delivery system for dried particulate or lyophilized peptides and polypeptides” (TransPharma Medical Ltd., priority 2002, dated 2010).
Where “and” joins values, the source holds several entries; their conditions need not be identical. Equal values may be shown once. Read-outs that look alike come from different tables or passages of the source.

Assay: Plasma hPTH (1-34) in female adult healthy human volunteers, ViaDerm and printed patches or SC (Example 13)
Format: in vivo
Design: AUC (individual subjects): unit not given here
Details: for Cmax (individual subjects): women; for Cmax (individual subjects) / AUC (individual subjects) / AUC: 12 h; for AUC / Tmax / Cmax: female, human, plasma
Procedure: Transdermal drug delivery study of hPTH (1-34) in four female adult healthy human volunteers was performed using ViaDerm and printed patches.
To evaluate the transdermal delivery of hPTH (1-34), printed patches containing 100 μg or 200 μg hPTH (1-34) (FORTEO®, Teriparatide purchased from Ely Lilly, Indianapolis, Ind., USA) were prepared. Patch area was 1.44 cm^2.
ViaDerm parameters: electrode array of 75 or 100 micro-channels/cm^2; ViaDerm was applied two or three times generating micro-channels at a density of 150 or 300 micro-channels/cm^2; Voltage: 290 volts, constant voltage; Burst length: 5000 μsec; Maximal current: 50 mA.
Each female adult received five treatments of hPTH (1-34) with a minimum of 2 day clearance between treatments. The treatments were as follows: • 1. Three ViaDerm applications (final density of 300 micro-channels/cm^2) on one site of the upper arm. Two printed patches, each containing 100 μg hPTH (1-34), were placed over the application area (each for 6 hours). • 2. Two ViaDerm applications (final density of 150 micro-channels/cm^2) on one site of the upper arm. Two printed patches, each containing 200 μg hPTH (1-34), were placed over the application area. • 3. Three ViaDerm applications (final density of 300 micro-channels/cm^2) on one site of the upper arm. Two printed patches, each containing 200 μg hPTH (1-34), were placed over the application area. • 4. Subcutaneous (SC) injection of 20 μg hPTH (1-34) (FORTEO®, Teriparatide was purchased from Ely Lilly, Indianapolis, Ind., USA). • 5. SC injection of 60 μg hPTH (1-34) (FORTEO®).
Plasma hPTH (1-34), calcium ions and phosphate ions were determined by Eliza using commercial kits.

## CC[C@H](C)[C@H](NC(=O)[C@H](CCC(=O)O)NC(=O)[C@H](CO)NC(=O)[C@@H](NC(=O)[C@@H](N)CO)C(C)C)C(=O)N[C@@H](CCC(N)=O)C(=O)N[C@@H](CC(C)C)C(=O)N[C@@H](CCSC)C(=O)N[C@@H](Cc1cnc[nH]1)C(=O)N[C@@H](CC(N)=O)C(=O)N[C@@H](CC(C)C)C(=O)NCC(=O)N[C@@H](CCCCN)C(=O)N[C@@H](Cc1cnc[nH]1)C(=O)N[C@@H](CC(C)C)C(=O)N[C@@H](CC(N)=O)C(=O)N[C@@H](CO)C(=O)N[C@@H](CCSC)C(=O)N[C@@H](CCC(=O)O)C(=O)N[C@@H](CCCN=C(N)N)C(=O)N[C@H](C(=O)N[C@@H](CCC(=O)O)C(=O)N[C@@H](Cc1c[nH]c2ccccc12)C(=O)N[C@@H](CC(C)C)C(=O)N[C@@H](CCCN=C(N)N)C(=O)N[C@@H](CCCCN)C(=O)N[C@@H](CCCCN)C(=O)N[C@@H](CC(C)C)C(=O)N[C@@H](CCC(N)=O)C(=O)N[C@@H](CC(=O)O)C(=O)N[C@H](C(=O)N[C@@H](Cc1cnc[nH]1)C(=O)N[C@@H](CC(N)=O)C(=O)N[C@@H](Cc1ccccc1)C(=O)O)C(C)C)C(C)C [hPTH (1-34)]
T-3: 300 micro-channels/cm^2, 2 printed patches each 200 μg (dose 400 ug)
  Cmax (individual subjects): 0.296887 ng/mL and 0.534872 ng/mL and 1.304179 ng/mL and 0.46945 ng/mL
T-3: 300 micro-channels/cm^2, 2 printed patches each 200 μg
  AUC (individual subjects): 886 and 1251 and 4649 and 1327
T-3: 300 micro-channels/cm^2, 2 printed patches each 200 μg, mean of 4 women
  Cmax AVG: 0.651347 ng/mL
T-4: SC injection of 20 μg
  Tmax (individual subjects): 6.0 h and 0.3 h and 0.5 h
  AUC (individual subjects): 172 and 158 and 176
  Cmax (individual subjects): 0.012196 ng/mL and 0.037556 ng/mL and 0.02935 ng/mL and 0.038062 ng/mL
T-4: SC injection of 20 μg, mean of 4 women
  Cmax AVG: 0.029291 ng/mL
T-5: SC injection of 60 μg
  Tmax (individual subjects): 0.5 h
  AUC (individual subjects): 84 and 100 and 474 and 399
  Cmax (individual subjects): 0.059209 ng/mL and 0.066482 ng/mL and 0.185324 ng/mL and 0.13504 ng/mL
T-5: SC injection of 60 μg, mean of 4 women
  Cmax AVG: 0.111514 ng/mL
100 ug, T-1: 300 micro-channels/cm^2, 2 printed patches each 100 μg, mean of 4 women, read-out: AUC AVG
  AUC: 0.963 ng·h/mL
100 ug, T-1: 300 micro-channels/cm^2, 2 printed patches each 100 μg, read-out: Tmax (individual subjects)
  Tmax: 1 h
other: transdermal printed patch on ViaDerm-treated skin, 100 ug, T-1: 300 micro-channels/cm^2, 2 printed patches each 100 μg, mean of 4 women
  Cmax: 0.331 ng/mL
other: transdermal printed patch on ViaDerm-treated skin, 100 ug, T-1: 300 micro-channels/cm^2, 2 printed patches each 100 μg, mean of 4 women, read-out: Tmax AVG
  Tmax: 1.5 h
other: transdermal printed patch on ViaDerm-treated skin, 200 ug, T-2: 150 micro-channels/cm^2, 2 printed patches each 200 μg, mean of 4 women, read-out: AUC AVG
  AUC: 1.94 ng·h/mL
other: transdermal printed patch on ViaDerm-treated skin, 200 ug, T-2: 150 micro-channels/cm^2, 2 printed patches each 200 μg, mean of 4 women
  Cmax: 0.642 ng/mL
other: transdermal printed patch on ViaDerm-treated skin, 200 ug, T-2: 150 micro-channels/cm^2, 2 printed patches each 200 μg, mean of 4 women, read-out: Tmax AVG
  Tmax: 2.1 h
other: transdermal printed patch on ViaDerm-treated skin, 200 ug, T-2: 150 micro-channels/cm^2, 2 printed patches each 200 μg, read-out: Tmax (individual subjects)
  Tmax: 1.5 h
other: transdermal printed patch on ViaDerm-treated skin, 200 ug, T-3: 300 micro-channels/cm^2, 2 printed patches each 200 μg, mean of 4 women, read-out: AUC AVG
  AUC: 2.03 ng·h/mL
other: transdermal printed patch on ViaDerm-treated skin, 200 ug, T-3: 300 micro-channels/cm^2, 2 printed patches each 200 μg, mean of 4 women
  Cmax: 0.651 ng/mL
other: transdermal printed patch on ViaDerm-treated skin, 200 ug, T-3: 300 micro-channels/cm^2, 2 printed patches each 200 μg, mean of 4 women, read-out: Tmax AVG
  Tmax: 2 h
other: transdermal printed patch on ViaDerm-treated skin, 200 ug, T-3: 300 micro-channels/cm^2, 2 printed patches each 200 μg, read-out: Tmax (individual subjects)
  Tmax: 2.5 h
sc, 20 ug, T-4: SC injection of 20 μg, mean of 4 women, read-out: AUC AVG
  AUC: 0.152 ng·h/mL
sc, 20 ug, T-4: SC injection of 20 μg, read-out: AUC (individual subjects)
  AUC: 0.103 ng·h/mL
sc, 20 ug, T-4: SC injection of 20 μg, mean of 4 women
  Cmax: 0.022 ng/mL
sc, 20 ug, T-4: SC injection of 20 μg, mean of 4 women, read-out: Tmax AVG
  Tmax: 1.8 h
sc, 60 ug, T-5: SC injection of 60 μg, mean of 4 women, read-out: AUC AVG
  AUC: 0.264 ng·h/mL
sc, 60 ug, T-5: SC injection of 60 μg, mean of 4 women
  Cmax: 0.115 ng/mL
sc, 60 ug, T-5: SC injection of 60 μg, mean of 4 women, read-out: Tmax AVG
  Tmax: 0.8 h
sc, 60 ug, T-5: SC injection of 60 μg, read-out: Tmax (individual subjects)
  Tmax: 1 h
